Laboratory results taken from ChEMBL document CHEMBL5726269, “Phosphonate compounds for treatment of complement mediated disorders” (2017).

Target: Complement factor D (Homo sapiens, UniProt P00746)
Assay: Human Factor D Assay: Human factor D (purified from human serum, Complement Technology, Inc.) at 80 nM final concentration is incubated with test compound at various concentrations for 5 minutes at room temperature in 50 mM Tris, 1M NaCl, pH 7.5. A synthetic substrate Z-L-Lys-SBzl and DTNB (Ellman's reagent) are added to final concentrations of 100 μM each. The increase in color is recorded at OD405 nm in a microplate in kinetic mode over 30 minutes with 30 second time points in a spectrofluorimeter. IC50 values are calculated by non-linear regression from the percentage of inhibition of complement factor D activity as a function of test compound concentration.

Chain of Complement factor D (P00746 whole entry): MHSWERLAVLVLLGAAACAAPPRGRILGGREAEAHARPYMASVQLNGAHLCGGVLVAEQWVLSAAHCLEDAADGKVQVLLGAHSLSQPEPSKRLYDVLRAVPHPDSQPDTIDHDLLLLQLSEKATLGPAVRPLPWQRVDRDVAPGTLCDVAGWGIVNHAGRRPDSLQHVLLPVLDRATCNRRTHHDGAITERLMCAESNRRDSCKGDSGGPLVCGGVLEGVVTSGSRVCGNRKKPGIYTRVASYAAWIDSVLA

## CC(=O)c1cn(CC(=O)N2C[C@H](F)C[C@H]2C(=O)NCc2cccc(Cl)c2F)c2cc(P(=O)(Oc3ccccc3)Oc3ccccc3)ccc12
  IC50: < 1000 nM
